# Patent US8778643B2, “Methods for increasing lipid levels and producing triacylglycerols in algae” (priority 2012, dated 2014)
# “And” between values parts separate entries of the source, which are not always exact repeats. Identical values can stand only once. Like-named read-outs stand apart in the source and are kept apart here.
# Columns and labels:
# [1] = system: Phaeodactylum tricornutum; experiment: Microplate assay: growth (absorbance 680 nm) and intracellular lipids (Nile Red fluorescence); type: cell-based; settings: for Nile Red Fluorescence % Increase: initial screening, p<0.05; for % Inc: increase of lipid production
# [2] = system: Nannochloropsis salina; settings: for % Lipid increase based on Nile red fluorescence intensity / % Increase based on Nile Red Fluorescence Intensity / Nile Red Fluorescence % Increase: N. salina; for % Lipid increase based on Nile red fluorescence intensity: DMSO, t=day 0; for % Increase based on Nile Red Fluorescence Intensity: added t=day 0; for Nile Red Fluorescence % Increase: compounds tested at 20 μM, initial screening, p<0.05
# [3] = system: Nannochloris sp.; experiment: Microplate assay: growth (absorbance 680 nm) and intracellular lipids (Nile Red fluorescence); type: cell-based
# [4] = system: Nannochloropsis oculata; settings: for % Lipid increase based on Nile red fluorescence intensity: t=day 0; for % Increase based on Nile Red Fluorescence Intensity: added t=day 0
# Description: Stock cultures were aerated by stirring with bubbling air (homemade manifold with Petco air pump, 2-4% CO2) or by orbital shaking (Thermo Scientific MAXQ 2000) at a constant speed of 150 rpm at 22±3° C. with a 16:8 hour light/dark cycle. Stocks were kept at stationary phase for use. Algae were prepared as dictated by culture center.
# Compounds were selected based on reported biological activity in non-microalgae organisms. To ensure that compounds retained their quality, they were stored under advised conditions after purchasing from the manufacturer. Solutions of all assay compounds were prepared as 10 mM stock solutions by dissolving in DMSO in 2-dram amber vials and then stored in darkness −20° C. 96-well PCR plates were used to create a stock plate layout that was then transferred to the algae microplates. A plate map was used to distribute each compound to a well based on molecule name, collection number, and CAS number. For 20 μM and 200 nM assay plates, 10 mM compound stock in DMSO was diluted into plate maps of 5 mM and 50 μM assay stocks, respectively.
# All materials for assay experiments were autoclaved before each use to maintain axenic algae cultures. Algae species were checked for homogeneity using a TS-100 light microscope (Nikon, Japan). […] Diluted stock solutions were made immediately prior to use for consistency and optimal plate growth. Cell density was measured on a Thermo Scientific Genesys 10S Vis Spectrophotometer (ThermoFisher, San Jose), using a 1 mL cuvette at 680 nm.
# Plates were originally run in triplicate, before replicates were increased to quadruplicate, along with a separate control plate to compare growth. Due to extensive evaporation in exterior wells over time, our unique algae plate layout was designed to use the 60 interior wells out of 96 wells for the experiment. The 36 outer wells were filled with Millipore water and media to prevent evaporation and edge effects in the inner algae wells, as well as serve as blanks. The 60 wells with algae contained a total volume of 251 μL (100 μL of media+DMSO compound stock +150 μL dilute algae stock). For 20 μM and 200 nM assay plates, 10 mM compound stock in DMSO is diluted into plate maps of 5 mM and 50 μM assay stocks, respectively. […] Plates were parafilmed during growth to limit the amount of evaporation that can occur. Plates were numbered, and numerically ordered to ensure they got the same shaker space.
# The shakers are kept at a constant shaking of 150 rpm. Ambient temperature is 22±3° C.
# [5] = Nannochloris sp., compounds tested at 20 μM, initial screening, p<0.05
# [6] = N. oculata, compounds tested at 200 nM, initial screening, p<0.05
# [7] = 200 nM, initial microplate screen, relative to control
# [8] = 10 μM, dose-response microplate screen
# [9] = 40 μM, dose-response microplate screen
# [10] = 40 μM, initial microplate screen, relative to control
structure (smiles),measurement,setting,value
"CN(NO)C1=CC(=O)C(=O)C=C1 [3,4-dephostatin, 4-[(hydroxyamino)-methylamino]cyclohexa-3,5-diene-1,2-dione]",% increase (lipid production),[1]; 0.0252-165.6 nM (H2O),5-46%
same,% increase (lipid production),"[1]; 0.0252-165.6 nM, not marked H2O",12-33%
same,% increase (lipid production),[2]; 0.0252-55.2 nM,8-40%
same,% increase (lipid production),[2]; 0.0252-165.6 nM (H2O),14-72%
N#CC(C#N)=Cc1cc(O)c(O)c(O)c1 [AG82],Nile Red Fluorescence % Increase,[3]; [5],54.2%
same,Nile Red Fluorescence % Increase,[4]; [6],144.5%
"Nc1cc2ncnc(Nc3cccc(Br)c3)c2cc1N [BPDQ, 4-[(3-bromophenyl)amino]-6,7-diamino-quinazoline]",Absorbance (percent increase),[3]; [7],−6.5%
same,Nile Red percent increase,[3]; [7],75.8%
same,% Lipid increase based on Nile red fluorescence intensity,"[1]; P. tricornutum, 400 fM, (water), t=day 0",63%
same,% Increase based on Nile Red Fluorescence Intensity,"[1]; P. tricornutum, 400 fM, dissolved in water, added t=day 0",63%
same,Absorbance (percent increase),[2]; [7],−6.7%
same,Nile Red percent increase,[2]; [7],54.9%
same,% Lipid increase based on Nile red fluorescence intensity,[2]; concentration 6.0 (unit not given),130%
same,% Increase based on Nile Red Fluorescence Intensity,"[2]; 6.0 nM, DMSO delivery",130%
same,% Increase based on Nile Red Fluorescence Intensity,"[2]; 55 nM, DMSO delivery",86%
"O=c1cc(-c2ccccc2)oc2cc(O)c(O)c(O)c12 [Baicalein, 5,6,7-Trihydroxy-2-phenyl-chromen-4-one]",Nile Red percent increase,"[1]; 0.0252 nM, dose-response microplate screen",105%
same,% increase (lipid production),[1]; 0.0252-55.2 nM,5-94%
same,% increase (lipid production),[4]; 0.0252 nM,25%
same,% Lipid increase based on Nile red fluorescence intensity,"[4]; N. oculata, 25.2 pM, DMSO",52%
same,% Lipid increase based on Nile red fluorescence intensity,"[4]; N. oculata, 40 μM, (water)",76%
same,% Increase based on Nile Red Fluorescence Intensity,"[4]; N. oculata, 25.2 pM, DMSO delivery",52%
same,% Increase based on Nile Red Fluorescence Intensity,"[4]; N. oculata, 40 μM, dissolved in water",76%
same,% increase (lipid production),"[2]; 0.0252-55.2 nM, DMSO delivery",3-28%
same,% increase (lipid production),[2]; 0.0252-165.6 nM (H2O),6-30 (H2O) %
same,Nile Red Fluorescence % Increase,[2],37.3%
NS(=O)(=O)c1ccc(N/N=C2\C(=O)Nc3ccc(Br)cc32)cc1 [CDK2 I2],Nile Red percent increase,"[3]; 40 nM-40 μM, dose-response microplate screen",110-210%
same,Absorbance (percent increase),[3]; [7],−14.0%
same,Nile Red percent increase,[3]; [7],103.2%
same,Absorbance (percent increase),[1]; [7],−7.9%
same,Nile Red percent increase,[1]; [7],50.3%
same,Nile Red percent increase,"[1]; 2.5 μM, dose-response microplate screen",160%
same,Nile Red percent increase,[1]; [8],140%
same,Nile Red percent increase,[1]; [9],380%
same,Absorbance (percent increase),[1]; [10],−14.6%
same,Nile Red percent increase,[1]; [10],150.6%
same,% Lipid increase based on Nile red fluorescence intensity,"[1]; P. tricornutum, 40 μM, DMSO, t=day 0",347%
same,Nile Red Fluorescence % Increase,"[1]; P. tricornutum, compounds tested at 200 nM",50.3%
same,Nile Red Fluorescence % Increase,"[1]; P. tricornutum, compounds tested at 40 μM",150.6%
same,% Increase based on Nile Red Fluorescence Intensity,"[1]; P. tricornutum, 10 μM, DMSO delivery, added t=day 0",86%
same,% Increase based on Nile Red Fluorescence Intensity,"[1]; P. tricornutum, 40 μM, DMSO delivery, added t=day 0",347%
same,% Inc,"[1]; P. tricornutum, best conc. 2.5 μM",163.88%
same,Nile Red percent increase,[2]; [8],121%
same,Nile Red percent increase,[2]; [9],271%
"O=C1NC(=O)c2c1c1c3ccccc3[nH]c1c1[nH]c3cc(Br)ccc3c21 [CDK4 I1, 2-Bromo-12,13-dihydro-5H-indolo[2,3-a]pyrrolo[3,4-c]carbazole-5,7(6H)-dione]",Nile Red percent increase,[1]; [9],129%
same,% Inc,"[1]; P. tricornutum, best conc. 10 μM",68.76%
same,% Lipid increase based on Nile red fluorescence intensity,[2]; 40 μM,49%
same,% Increase based on Nile Red Fluorescence Intensity,"[2]; 40 μM, DMSO delivery",49%
O=C(O)/C=C/c1ccc(O)c(O)c1 [Caffeic acid],% increase (lipid production),[1]; 6-165 nM,13-205%
same,% Lipid increase based on Nile red fluorescence intensity,"[1]; P. tricornutum, 4 μM, (water), t=day 0",94%
same,% Increase based on Nile Red Fluorescence Intensity,"[1]; P. tricornutum, 4 μM, dissolved in water, added t=day 0",94%
same,effect on lipid production / lipid levels,"[1]; microplate assay, multiple concentrations",minimal effect on lipid production
same,% increase (lipid production),[4]; 0.681 nM,5%
same,% increase (lipid production),"[2]; 0.0252 nM-165.6 nM, DMSO delivery",1-40%
same,% increase (lipid production),[2]; 0.0252-0.681 nM (H2O),62-110 (H2O) %
same,Nile Red percent increase,"[2]; 0.076-681 nM (H2O), dose-response microplate screen",96-117%
same,increase in lipid production,"[2]; diluted in water, microplate",more than 100%
same,optimal effective concentration (lipid production),[2]; lipoxygenase inhibitor microplate screen,0.22 to 0.68 nM
same,lipid increase,"[2]; with DMSO, microplate",< 20%
"COc1cc(/C=C/C(=O)CC(=O)/C=C/c2ccc(O)c(OC)c2)ccc1O [Curcumin, (1E,6E)-1,7-bis (4-hydroxy-3-methoxyphenyl)-1,6-heptadiene-3,5-dione]",% increase (lipid production),[1]; 6-494 nM,7-30%
same,% increase (lipid production),[4]; 0.0252-0.0757 nM,4-10%
same,% Lipid increase based on Nile red fluorescence intensity,"[4]; N. oculata, 75.7 pM, DMSO",49%
same,% Increase based on Nile Red Fluorescence Intensity,"[4]; N. oculata, 75.7 pM, DMSO delivery",49%
same,% increase (lipid production),[2]; 0.0252 nM-0.227 nM (H2O),5-9 (H2O) %
same,% increase (lipid production),"[2]; 18 nM-13 μM, DMSO delivery",18-69%
CNC[C@H](O)c1ccc(O)c(O)c1 [Epinephrine],Nile Red Fluorescence % Increase,[3],44.9%
same,Nile Red Fluorescence % Increase,[4],129.3%
"O=c1ccc2cc(O)c(O)cc2o1 [Esculetin, 6,7-Dihydroxy-2-chromenone]",% increase (lipid production),[1]; 0.0252-18.4 nM,3-79%
same,% increase (lipid production),[2]; 0.0252-6.13 nM (H2O),5-31 (H2O) %
same,% increase (lipid production),"[2]; 0.0757-55.2 nM, DMSO delivery",1-30%
same,% Lipid increase based on Nile red fluorescence intensity,[2]; 6.13 nM,62%
same,% Increase based on Nile Red Fluorescence Intensity,"[2]; 681 pM, DMSO delivery",50%
same,% Increase based on Nile Red Fluorescence Intensity,"[2]; 6.13 nM, DMSO delivery",62%
"O=c1c(-c2ccc(O)cc2)coc2cc(O)cc(O)c12 [Genistein, 5,7-Dihydroxy-3-(4-hydroxyphenyl)chromen-4-one]",% increase (lipid production),[1]; 54 nM-40 μM (H2O),16-70%
same,% increase (lipid production),[2]; […]-40 μM,11-85%
"O=C(NCCN1CCC(n2c(=O)[nH]c3cc(Cl)ccc32)CC1)c1ccc(F)cc1 [Halopemide, N-[2-[4-(5-Chloro-2,3-dihydro-2-oxo-1H-benzimidazol-1-yl)piperidino]ethyl]-4-fluorobenzamide]",% change in abs,"[1]; P. tricornutum, 10 μM",−31.22%
same,% in NR fl,"[1]; P. tricornutum, 10 μM",73.94%
same,% change in abs,"[4]; N. oculata, 40 μM",−2.02%
same,% in NR fl,"[4]; N. oculata, 40 μM",55.13%
CC(C)Cc1ccc(C(C)C(=O)O)cc1 (stereo not shown) [Ibuprofen],Nile Red Fluorescence % Increase,[3]; [5],80.2%
same,Nile Red Fluorescence % Increase,[2],59.0%
"COc1ccc2c(c1)c(CC(=O)O)c(C)n2C(=O)c1ccc(Cl)cc1 [Indomethacin, 1-(4-Chlorobenzoyl)-5-methoxy-2-methyl-3-indoleacetic acid]",% Increase based on Nile Red Fluorescence Intensity,"[3]; Nannochloris sp., 49 nM, dissolved in water, added t=day 0",81%
same,Nile Red percent increase,"[2]; 55 nM, dose-response microplate screen",118%
same,% Lipid increase based on Nile red fluorescence intensity,[2]; 123.5 nM,61%
same,% Increase based on Nile Red Fluorescence Intensity,"[2]; 123.5 nM, DMSO delivery",61%
"O=C1Cc2c([nH]c3ccc(Br)cc23)-c2ccccc2N1 [Kenpaullone, 9-Bromo-7,12-dihydro-indolo[3,2-d][1]benzazepin-6(5H)-one]",Absorbance (percent increase),[3]; [7],−8.1%
same,Nile Red percent increase,[3]; [7],77.5%
same,Nile Red Fluorescence % Increase,[3]; [5],97.7%
same,Nile Red Fluorescence % Increase,[2],34.8%
CC(O)C(=O)O (stereo not shown) [Lactic Acid],Nile Red Fluorescence % Increase,[3]; [5],30.9%
same,Nile Red Fluorescence % Increase,[4]; [6],128.8%
"O=P(O)(O)Oc1ccc2ccccc2c1 [Napthyl acid phosphate, naphthalen-2-yl hydrogen phosphate]",% Increase based on Nile Red Fluorescence Intensity,[1],51%
same,% Lipid increase based on Nile red fluorescence intensity,[1],51%
same,% increase (lipid production),[1],4% and 1-60%
same,% increase (lipid production),[4],18%
O=c1c(O)c(-c2ccc(O)c(O)c2)oc2cc(O)cc(O)c12 [Quercitin],% Inc,"[4]; increase of lipid production, N. oculata, best conc. 2.5 μM",67.10%
"c1ccc2ncncc2c1 [Quinazoline, Benzopyrimidine]",% increase (lipid production),[1]; 4-40 μM (H2O),15-26 (H2O) %
same,% increase (lipid production),[2]; […]-40 μM,(none)
